Data from patent US7388097B2, “Difluoromethyl thiazolyl carboxanilides” (Bayer CropScience AG, priority 2002, dated 2008).

Legend:
[1] = logP determination by HPLC on reverse-phase column (C 18), EEC Directive 79/831 Annex V.A8; type: physicochemical; conditions: reverse-phase C18 HPLC column; pH 2.3; HPLC reverse-phase C 18; 43° C.; 0.1% aqueous phosphoric acid/acetonitrile gradient
Protocol: The determination of the logP values given in the tables and Preparation Examples above is carried out in accordance with EEC Directive 79/831 Annex V.A8 by HPLC (High Performance Liquid Chromatography) on a reverse-phase column (C 18). Temperature: 43° C.
The determination is carried out in the acidic range at pH 2.3 using the mobile phases 0.1% aqueous phosphoric acid and acetonitrile; linear gradient from 10% acetonitrile to 90% acetonitrile.
Calibration is carried out using unbranched alkan-2-ones (of 3 to 16 carbon atoms) with known logP values (determination of the logP values by the retention times using linear interpolation between two successive alkanones).

Venturia inaequalis = assay: Venturia Test (Apple)/Protective; type: in vivo; conditions: 240 h, protective spray, application rate 10 g/ha, evaluation 10 days after inoculation, 100% = no infection, read-out: % efficacy
Protocol: Venturia Test (Apple)/Protective
(§1) To produce a suitable preparation of active compound, 1 part by weight of active compound is mixed with the stated amounts of solvents and emulsifier, and the concentrate is diluted with water to the desired concentration.
To test for protective activity, young plants are sprayed with the preparation of active compound at the stated application rate. After the spray coating has dried on, the plants are inoculated with an aqueous conidia suspension of the apple scab pathogen Venturia inaequalis and then remain in an incubation cabin at about 20° C. and 100% relative atmospheric humidity for 1 day.
The plants are then placed in a greenhouse at about 21° C. and a relative atmospheric humidity of about 90%.
Evaluation is carried out 10 days after the inoculation. 0% means an efficacy which corresponds to that of the control, whereas an efficacy of 100% means that no infection is observed.

Botrytis cinerea = assay: Botrytis Test (Bean)/Protective; type: in vivo; conditions: 48 h, protective spray, application rate 100 g/ha, evaluation 2 days after inoculation, 100% = no infection, read-out: % efficacy
Protocol: Botrytis Test (Bean)/Protective
as §1
To test for protective activity, young plants are sprayed with the preparation of active compound at the stated application rate. After the spray coating has dried on, 2 small pieces of agar colonized by Botrytis cinerea are placed onto each leaf. The inoculated plants are placed in a dark chamber at about 20° C. and 100% relative atmospheric humidity.
2 days after the inoculation, the size of the infected areas on the leaves is evaluated. 0% means an efficacy which corresponds to that of the control, whereas an efficacy of 100% means that no infection is observed.

Septoria tritici = assay: In vitro test for the ED50 determination of microorganisms; type: cell-based; conditions: 50% inhibition of fungal growth, tested at 0.1, 1, 10 and 100 ppm, 22° C., 3-5 days, photometric 620 nm
Protocol: (§2) In Vitro Test for the ED50 Determination of Microorganisms
(§3) A methanolic solution of the active compound to be tested, mixed with the emulsifier PS16, is pipetted into the wells of microtiter plates. After the solvent has evaporated, 200 μl of potato/dextrose medium are added to each well.
(§4) Beforehand, a suitable concentration of spores or mycelium of the fungus to be tested was added to the medium.
(§5) The resulting concentrations of active compound are 0.1, 1, 10 and 100 ppm. The resulting concentration of the emulsifier is 300 ppm.
(§6) The plates are then incubated on a shaker at a temperature of 22° C. for 3-5 days, until sufficient growth can be observed in the untreated control.
(§7) Evaluation is carried out photometrically at a wavelength of 620 nm. The dose of active compound which causes a 50% inhibition of fungal growth compared to the untreated control (ED50) is calculated from the data measured at different concentrations.

Rhizoctonia solani = assay: as above; type: cell-based; conditions: 50% inhibition of fungal growth, tested at 0.1, 1, 10 and 100 ppm, 22° C., 3-5 days, photometric 620 nm
Protocol: as §2, §3, §4, §5, §6, §7

| SMILES | chromatographic logP [1] | pest or weed control at 10 g/ha (Venturia inaequalis) [%] | pest or weed control at 100 g/ha (Botrytis cinerea) [%] | ED50 (Septoria tritici) [ppm] | ED50 (Rhizoctonia solani) [ppm] |
| --- | --- | --- | --- | --- | --- |
| Cc1nc(C(F)F)c(C(=O)Nc2ccccc2-c2ccc(F)c(Cl)c2)s1 [Example 1, N-(3′-chloro-4′-fluoro-1,1′-biphenyl-2-yl)-2-methyl-4-(difluoromethyl)-1,3-thiazole-5-carboxamide] | 3.28 | – | – | – | – |
| Cc1nc(C(F)F)c(C(=O)Nc2ccccc2-c2ccc(Br)cc2)s1 [Example 2] | 3.47 | 100 | 100 | – | – |
| Cc1nc(C(F)F)c(C(=O)Nc2ccccc2-c2ccc(C(F)(F)F)cc2)s1 [Example 3] | 3.52 | 100 | 100 | 0.36 | < 0.1 |
| Cc1nc(C(F)F)c(C(=O)Nc2ccccc2-c2cccc(Cl)c2)s1 [Example 4] | 3.37 | 100 | 100 | 0.45 | < 0.1 |
| Cc1nc(C(F)F)c(C(=O)Nc2ccccc2-c2ccc(OC(F)(F)F)cc2)s1 [Example 5] | 3.72 | 87 | 79 | 0.25 | < 0.1 |
| CSc1ccc(-c2ccccc2NC(=O)c2sc(C)nc2C(F)F)cc1 [Example 6] | 3.39 | 99 | 94 | 3.51 | 3.25 |

More lines, main results first:

| chromatographic logP [1] | SMILES | pest or weed control at 10 g/ha (Venturia inaequalis) [%] | pest or weed control at 100 g/ha (Botrytis cinerea) [%] | ED50 (Septoria tritici) [ppm] | ED50 (Rhizoctonia solani) [ppm] |
| --- | --- | --- | --- | --- | --- |
| 3.09 | Cc1nc(C(F)F)c(C(=O)Nc2ccccc2-c2ccc(F)cc2)s1 [Example 7] | 100 | 94 | 0.68 | 0.48 |
| 3.58 | Cc1nc(C(F)F)c(C(=O)Nc2ccccc2-c2ccc(Cl)cc2Cl)s1 [Example 9] | 98 | 95 | – | – |
| 3.77 | Cc1nc(C(F)F)c(C(=O)Nc2ccccc2-c2ccc(Cl)cc2C)s1 [Example 10] | 100 | 100 | – | – |
| 3.29 | Cc1nc(C(F)F)c(C(=O)Nc2ccccc2-c2ccc(Cl)c(F)c2)s1 [Example 11] | 100 | 100 | – | – |
| 3.62 | Cc1nc(C(F)F)c(C(=O)Nc2ccccc2-c2ccc(C)c(Cl)c2)s1 [Example 12] | 100 | 100 | – | – |
